In ChEMBL document CHEMBL5241093, “Recent advances in the design and discovery of synthetic tyrosinase inhibitors” (Eur J Med Chem, 2021):
pEC50, pIC50, pKi: −log10 of the molar value. Values belong to the compound of their own block, whether it stands above or below them.

Legend:
Tyrosinase [1] = target: T1, Tyrosinase (Agaricus bisporus, UniProt O42713); assay: Inhibition of mushroom tyrosinase using L-DOPA as substrate incubated for 5 mins
T1 sequence (O42713 whole entry): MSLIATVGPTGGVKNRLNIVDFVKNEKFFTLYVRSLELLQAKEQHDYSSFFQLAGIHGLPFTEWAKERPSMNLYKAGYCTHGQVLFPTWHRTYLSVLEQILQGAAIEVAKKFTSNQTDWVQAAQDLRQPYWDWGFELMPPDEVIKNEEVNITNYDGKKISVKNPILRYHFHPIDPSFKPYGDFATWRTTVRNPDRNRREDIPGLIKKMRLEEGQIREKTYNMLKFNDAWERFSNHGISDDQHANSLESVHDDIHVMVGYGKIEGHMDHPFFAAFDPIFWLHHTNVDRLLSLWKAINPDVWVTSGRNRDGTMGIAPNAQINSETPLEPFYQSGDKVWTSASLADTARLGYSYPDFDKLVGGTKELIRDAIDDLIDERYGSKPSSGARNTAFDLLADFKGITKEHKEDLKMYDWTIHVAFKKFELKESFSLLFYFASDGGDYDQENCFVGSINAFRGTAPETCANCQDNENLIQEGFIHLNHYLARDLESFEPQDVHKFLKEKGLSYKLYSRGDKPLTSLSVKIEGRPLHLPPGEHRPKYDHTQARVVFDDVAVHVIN

Tyrosinase [2] = target: T1, Tyrosinase; assay: Inhibition of mushroom tyrosinase using L-dopa as substrate incubated for 30 mins by spectrophotometric analysis
Tyrosinase [3] = target: T1, Tyrosinase; assay: Inhibition of mushroom tyrosinase using L-dopa as substrate assessed as inhibition constant incubated for 30 mins by spectrophotometric analysis
Mushroom tyrosinase [4] = target: T2, Mushroom tyrosinase (Agaricus bisporus, UniProt O42713+Q00024+C7FF04+C7FF05); assay: Inhibition of mushroom monophenolase
Mushroom tyrosinase [5] = target: T2, Mushroom tyrosinase; assay: Inhibition of mushroom diphenolase
Tyrosinase [6] = target: T1, Tyrosinase; assay: Inhibition of mushroom tyrosinase using L-DOPA as substrate incubated for 20 mins by microplate reader analysis
Tyrosinase [7] = target: T1, Tyrosinase; assay: Inhibition of mushroom tyrosinase using L-DOPA as a substrate assessed as inhibition constant incubated for 5 mins by microplate reader analysis
Tyrosinase [8] = target: T1, Tyrosinase; assay: Inhibition of mushroom tyrosinase using L-DOPA as substrate preincubated for 10 mins followed by substrate addition measured after 20 mins by microtitre plate analysis
Tyrosinase [9] = target: T1, Tyrosinase; assay: Inhibition of mushroom tyrosinase using L-DOPA as substrate incubated for 10 mins
Tyrosinase [10] = target: T1, Tyrosinase; assay: Inhibition of mushroom tyrosinase using L-DOPA as substrate incubated for 20 mins
Tyrosinase [11] = target: T1, Tyrosinase; assay: Inhibition of mushroom tyrosinase using L-DOPA as substrate assessed as monophenolase activity incubated for 20 mins by microplate reader analysis
Tyrosinase [12] = target: T1, Tyrosinase; assay: Inhibition of mushroom tyrosinase using L-tyrosine as substrate assessed as […] activity incubated for 20 mins by microplate reader analysis
[13] = Antioxidant activity assessed as DPPH radical scavenging activity incubated for 30 mins under dark condition; format: functional
Tyrosinase [14] = target: T1, Tyrosinase; assay: Inhibition of mushroom tyrosinase using L-dopa as substrate incubated for 30 mins by microplate reader analysis
Tyrosinase [15] = target: T1, Tyrosinase; assay: Inhibition of mushroom tyrosinase using L-dopa as substrate assessed as monophenolase activity incubated for 30 mins by spectrophotometric method
Tyrosinase [16] = target: T1, Tyrosinase; assay: Inhibition of mushroom tyrosinase using L-dopa as substrate assessed as diphenolase activity incubated for 30 mins by spectrophotometric method
Tyrosinase [17] = target: T1, Tyrosinase; assay: Inhibition of mushroom tyrosinase using L-DOPA as substrate preincubated for 10 mins followed by substrate addition measured after 20 mins by microtitre plate reader analysis
Tyrosinase [18] = target: T1, Tyrosinase; assay: Inhibition of mushroom tyrosinase using L-DOPA as substrate assessed as inhibition constant preincubated with compound for 15 mins by microplate reader analysis
Tyrosinase [19] = target: T1, Tyrosinase; assay: Inhibition of mushroom tyrosinase using L-DOPA as substrate preincubated with compound for 15 mins by microplate reader analysis
Tyrosinase [20] = target: T3, Tyrosinase (Homo sapiens, UniProt P14679); assay: Inhibition of human his tagged tyrosinase expressed in HEK293 cells using L-DOPA as substrate incubated for 10 mins by microtitre plate reader analysis; format: cell-based
T3 sequence (P14679 whole entry): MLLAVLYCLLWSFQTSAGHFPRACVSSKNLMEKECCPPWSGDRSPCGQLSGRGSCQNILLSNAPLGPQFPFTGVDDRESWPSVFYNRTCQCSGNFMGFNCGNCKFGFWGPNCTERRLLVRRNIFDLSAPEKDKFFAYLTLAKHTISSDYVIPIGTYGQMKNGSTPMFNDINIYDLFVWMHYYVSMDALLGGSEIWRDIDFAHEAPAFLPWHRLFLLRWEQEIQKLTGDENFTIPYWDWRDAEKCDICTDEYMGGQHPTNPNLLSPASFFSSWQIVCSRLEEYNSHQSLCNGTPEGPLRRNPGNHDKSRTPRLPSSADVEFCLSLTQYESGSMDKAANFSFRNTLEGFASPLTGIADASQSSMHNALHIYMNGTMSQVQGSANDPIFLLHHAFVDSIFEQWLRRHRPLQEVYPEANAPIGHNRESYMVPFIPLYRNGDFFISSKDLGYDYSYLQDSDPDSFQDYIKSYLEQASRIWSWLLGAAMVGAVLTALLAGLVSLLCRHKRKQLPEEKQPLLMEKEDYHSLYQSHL

B16 = assay: Anti-melanoma activity against mouse B16 cells assessed as inhibition of tyrosinase activity incubated for 48 hrs by spectrophotometer analysis relative to control; format: functional
Tyrosinase [21] = target: T1, Tyrosinase; assay: Inhibition of mushroom tyrosinase using L-tyrosine as substrate preincubated for 15 mins followed by substrate addition measured after 30 mins by plate reader analysis

pIC50 (Tyrosinase [1]): 5.58
Compound: OC[C@H]1O[C@H](Oc2cc(O)cc(CCc3ccc(O)cc3O)c2)[C@H](O)[C@@H](O)[C@@H]1O

pIC50 (Tyrosinase [2]): 5.86 | pKi (Tyrosinase [3]): 5.62
Compound: O=C1/C(=C/c2ccc(O)cc2O)Cc2ccccc21

IC50 (Mushroom tyrosinase [4]): 6200 nM | IC50 (Mushroom tyrosinase [5]): 10300 nM
Compound: CCN(CC)c1ccc(Nc2nc(-c3ccc(O)cc3O)cs2)cc1

pIC50 (Tyrosinase [6]): 5.21
Compound: Oc1ccc(/C=N\n2c(Cc3ccccc3F)n[nH]c2=S)cc1

pKi (Tyrosinase [7]): 5.40
Compound: CC1(C)CC(=O)C2=C(C1)Oc1c(oc(CCl)cc1=O)C2c1ccc(F)cc1 (stereo not given)

pIC50 (Tyrosinase [1]): 4.89
Compound: OC[C@H]1O[C@H](Oc2cc(CCc3ccc(O)cc3O)cc(O[C@H]3O[C@H](CO)[C@@H](O)[C@H](O)[C@H]3O)c2)[C@H](O)[C@@H](O)[C@@H]1O

pIC50 (Tyrosinase [8]): 6.82
Compound: Cc1ccc(C(C)C)cc1NC(=O)COC(=O)/C=C/c1ccc(O)cc1O

pIC50 (Tyrosinase [9]): 7.42
Compound: COc1cc(/C=C/C(=O)c2ccc(OC)c(OC)c2)ccc1O

pIC50 (Tyrosinase [10]): 5.80
Compound: CCOc1cc(/C=N/NC(=O)c2ccc(O)c(OC)c2)ccc1O

pIC50 (Tyrosinase [11]): 6.03 | pIC50 (Tyrosinase [12]): 7.89
Compound: O=C(/C=C/c1ccc(O)cc1O)c1cccs1

pIC50 (Tyrosinase [6]): 5.82
Compound: Nn1c(S)nnc1N/N=C\c1ccccc1O

EC50 [13]: 0.94 mM/L
Compound: CCOC(=O)C1=C(N)Oc2c(ccc3ccccc23)C1c1ccc(N(C)C)cc1 (stereo not given)

pIC50 (Tyrosinase [14]): 5.74
Compound: O=C1N=C(Nc2nc3ccccc3s2)S/C1=C\c1ccc(O)cc1O

pIC50 (Tyrosinase [15]): 4.20 | pIC50 (Tyrosinase [16]): 4.22
Compound: COc1cc(CC2C(=O)Nc3ccccc32)ccc1O (stereo not given)

pIC50 (Tyrosinase [17]): > 7.00
Compound: O=C1OC(c2ccccc2Br)=NC(=S)C1c1nn[nH]n1 (stereo not given)

pIC50 (Tyrosinase [17]): > 7.00
Compound: Cc1ccc(NC(=O)CCCN2CCN(C/C=C/c3ccccc3)CC2)c(C)c1

Compound: COc1cccc2c1c(C(=O)C(=O)Nc1cc[nH]n1)cn2Cc1ccc(F)cc1
pIC50 (Tyrosinase [9]): 3.65

pKi (Tyrosinase [18]): 4.12 | pIC50 (Tyrosinase [19]): 3.51
Compound: O=P(O)(c1ccccc1)C(NCc1ccccc1)c1ccccn1 (stereo not given)

pIC50 (Tyrosinase [17]): > 7.00
Compound: COc1ccccc1-n1c(SCC(=O)Nc2ccc(Br)cc2)nnc1-c1ccccc1

pIC50 (Tyrosinase [9]): 7.66
Compound: COc1cc(/C=C/C(=O)c2cc(OC)c(OC)c(-c3cc(C(=O)/C=C/c4ccc(O)c(OC)c4)cc(OC)c3OC)c2)ccc1O

pEC50 (Tyrosinase [20]): 3.61
Compound: Nc1nc(-c2ccc(O)cc2O)cs1

Compound: Nc1ccccc1C(=O)O [ANTHRANILIC ACID]
IC50 (Mushroom tyrosinase [4]): 5150 nM | IC50 (Mushroom tyrosinase [5]): 4720 nM

Compound: OC[C@H]1O[C@@H](Oc2ccc(O)cc2)[C@H](O)[C@@H](O)[C@@H]1O [ARBUTIN]
inhibition (INH) (B16): 55.4%

pIC50 (Tyrosinase [21]): 3.53
Compound: O=C(O)/C=C/c1ccc(O)cc1 [COUMARIC ACID]
